# Experimental data reported in publication PMC6273176, “In Silico Mining for Antimalarial Structure-Activity Knowledge and Discovery of Novel Antimalarial Curcuminoids” (Molecules, 2016).
# Like-named read-outs stand apart in the source and are kept apart here.
# Assays:
# [1] = tested on: human fibroblast MRC-5 cell line; assay: Cytotoxicity assay on MRC-5 fibroblasts (resazurin); format: cell-based
# Method: (§1) In vitro biological assays. Compounds were tested to establish a full dose-titration and determination of the IC50. […] The selectivity antiprotozoal potential on P. falciparum (3D7 strain) was assessed by simultaneous evaluation of cytotoxicity on a fibroblast (MRC-5) cell line.
# (§2) Cytotoxicity assay. […] Cell viability was assessed fluorometrically after 4 h of the addition of resazurin. Fluorescence was measured (excitation 550 nm, emission 590 nm), and the results were expressed as % reduction in cell viability compared to untreated control. Tamoxifen is used as the reference control.
# [2] = as above; format: cell-based, human; settings: human
# Method: as §1, §2
# P. falciparum 3D7 strain = assay: Antiplasmodial activity, SYBR Green I assay on P. falciparum 3D7 cultures; format: cell-based, Plasmodium falciparum; settings: for IC50: read-out: Plasmodium falciparum 3D7 Strain IC50 ± SD
# Method: In vitro biological assays. Compounds were tested to establish a full dose-titration and determination of the IC50. […] Antiplasmodial activity. The P. falciparum 3D7 strain was maintained in O+ human erythrocytes in albumin RPMI-supplemented medium under continuous culture using the candle-jar method. The parasites were synchronized to the ring stage by repeated sorbitol treatment. A 2.5% (v/v) erythrocyte suspension with 1% parasitemia (number of parasites per 100 red blood cells) was incubated with the compounds to be tested, previously dissolved in DMSO. […] After 44 h of incubation at 37 °C, the plates were subjected to 3 freeze-thaw cycles to achieve complete hemolysis. […] The incorporation of SYBR Green I (Applied Biosystems) in parasite DNA was measured using the Master […]® (Eppendorf) according to the following program to increase the SYBR Green incorporation: 90 °C (1 min), decrease in temperature from 90 °C to 10 °C (during 5 min) with reading the fluorescence. Then, the IC50 was calculated by icestimator software.
# [3] = Plasmodium falciparum, 3D7, 44 h, 3D7 strain, ring-stage synchronized, 44 h incubation, SYBR Green I
# [4] = MRC-5 SV2 cells, 72 h, resazurin, read-out: Cytotoxicity MRC-5 CC50
# [5] = Plasmodium falciparum, 3D7, 44 h
IC50 (P. falciparum 3D7 strain; [3]),SMILES,SI CC50/IC50 [1],CC50 at 72 h [2],cytotoxicity classification from CC50 [1],further results
51.2 ± 10.7 nM,COc1ccc(/C=C/C(=O)/C=C/c2ccc3ccccc3c2)cc1 [Compound A3],625,32000 nM,rather not cytotoxic,–
70.6 ± 9.7 nM,O=C(/C=C/c1ccc(F)cc1)/C=C/c1ccc(F)cc1 [Compound A4],–,–,–,–
110 ± 20.3 nM,CN(C)c1ccc(/C=C/C(=O)/C=C/c2ccc(F)cn2)cc1 [Compound A5],292.4,32200 nM,rather not cytotoxic,–
111 ± 12.5 nM,CN(C)c1ccc(/C=C/C(=O)/C=C/c2nccs2)cc1 [Compound A6],–,> 64000 nM,–,–
120 ± 17.3 nM,O=C(/C=C/c1ccccc1)/C=C/c1ccncc1 [Compound A7],16.5,1990 nM,rather cytotoxic,–
121 ± 12.4 nM,O=C(/C=C/c1ccc(Cl)cc1)/C=C/c1ccc(Cl)cc1 [Compound A9],351.6,42400 nM,rather not cytotoxic,–
161 ± 20.5 nM,O=C(/C=C/c1ccccc1)/C=C/c1ccccn1 [Compound A10],9.5,1530 nM,rather cytotoxic,–
181 ± 29.6 nM,O=C(/C=C/c1ccccc1Cl)/C=C/c1ccccc1Cl [Compound A11],162.3,29400 nM,–,–
> 500 nM,O=C(/C=C/c1ccncc1)/C=C/c1ccncc1 [Compound A13],<2.3,1130 nM,rather cytotoxic,–
> 500 nM,O=C(/C=C/c1ccccc1)/C=C/c1ncccn1 [Compound A14],<3.1,1560 nM,rather cytotoxic,–
> 500 nM,COc1ccc(/C=C/C(=O)/C=C/c2ccc(N)cc2)cc1 [Compound A15],–,–,–,–
> 500 nM,Cc1ccc(/C=C/C(=O)/C=C/c2ccc(C)cc2)cc1 [Compound A17],<64.9,32500 nM,rather not cytotoxic,–
–,COc1cc(/C=C/C(=O)/C=C/c2ccc(O)c(OC)c2)ccc1O [Compound A18],<2.1,1060 nM,rather cytotoxic,IC50 (P. falciparum 3D7 strain; [5]): > 500 nM
> 500 nM,CN(C)c1ccc(/C=C/C(=O)/C=C/c2ccc(N(C)C)cc2)cc1 [Compound A19],<124.5,62300 nM,rather not cytotoxic,–
30.3 ± 6.1 nM,COc1cc(Br)c(OC)c([C@@H]2CC(=O)C[C@H](c3cc(OC)cc(Br)c3OC)S2)c1 [Compound B1],>2112.2,> 64000 nM,–,–
30.6 ± 9.2 nM,COc1cc([C@@H]2CC(=O)C[C@@H](c3cc(OC)c(C)cc3OC)S2)c(OC)cc1C [Compound B2],–,–,–,–
60.4 ± 10.2 nM,O=C1C[C@@H](c2c(Cl)cccc2Cl)S[C@@H](c2c(Cl)cccc2Cl)C1 [Compound B4],–,–,–,–
–,O=C1C[C@H](c2ccccn2)[S+]([O-])[C@H](c2ccccn2)C1 (stereo partly drawn) [Compound B5],33.6,8060 nM,–,"cytotoxicity classification from CC50 ([1]; MRC-5 cells, class in words): moderately cytotoxic; IC50 (P. falciparum 3D7 strain; 3D7 strain, ring-stage synchronized, 44 h incubation, SYBR Green I): 240 ± 48.1 nM"
> 500 nM,O=C1C[C@@H](c2c(Cl)cccc2Cl)S[C@H](c2c(Cl)cccc2Cl)C1 [Compound B8],<128,> 64000 nM,–,–
> 500 nM,CN(C)c1ccc([C@H]2CC(=O)C[C@H](c3ccc(N(C)C)cc3)S2)cc1 [Compound B12],<9.9,4960 nM,moderately cytotoxic,"observed activity against 3D7 P. falciparum strain (in words) (P. falciparum 3D7 strain; in vitro 3D7 culture, active/inactive): inactive"
–,"CCN(CC)CCCC(C)Nc1ccnc2cc(Cl)ccc12 (stereo not drawn) [chloroquine, reference compound]",–,–,–,IC50 (P. falciparum 3D7 strain; [5]): 20.3 ± 5.2 nM
–,"CC/C(=C(\c1ccccc1)c1ccc(OCCN(C)C)cc1)c1ccccc1 [tamoxifen, reference compound]",–,–,–,"CC50 at 72 h ([2]; MRC-5 SV2 fibroblast cells, MRC-5 SV2 cells, 72 h, resazurin, read-out: Cytotoxicity MRC-5 CC50): 9120 nM"

SMILES,IC50 (P. falciparum 3D7 strain; [3]),SI CC50/IC50 [1],CC50 at 72 h [2],cytotoxicity classification from CC50 [1],further results
O=C(/C=C/c1ccccn1)/C=C/c1ccccn1 [Compound A1],30.1 ± 8.5 nM,63.4,1910 nM,–,"cytotoxicity classification from CC50 ([1]; MRC-5 cells, class in words): rather cytotoxic"
COc1ccc(O)c(/C=C/C(=O)/C=C/c2cc(OC)ccc2O)c1 [Compound A2],30.2 ± 6.3 nM,62.2,1880 nM,–,"cytotoxicity classification from CC50 ([1]; MRC-5 cells, class in words): rather cytotoxic"
O=C(/C=C/c1ccco1)/C=C/c1ccco1 [Compound A8],121 ± 10.5 nM,>530.2,–,–,"CC50 at 72 h [2, 4]: > 64000 nM"
O=C(/C=C/c1c(Cl)cccc1Cl)/C=C/c1c(Cl)cccc1Cl [Compound A12],240 ± 20.4 nM,>266.5,–,–,"CC50 at 72 h [2, 4]: > 64000 nM"
Cc1ccc(/C=C/C(=O)/C=C/c2ccc(C)o2)o1 [Compound A16],> 500 nM,<10.7,5360 nM,–,"cytotoxicity classification from CC50 ([1]; MRC-5 cells, class in words): rather cytotoxic"
O=C1C[C@H](c2ccccn2)[S+]([O-])[C@@H](c2ccccn2)C1 [Compound B3],40.1 ± 7.3 nM,199.5,8000 nM,–,"cytotoxicity classification from CC50 ([1]; MRC-5 cells, class in words): moderately cytotoxic"
O=C1C[C@@H](c2ccccn2)S[C@@H](c2ccccn2)C1 [Compound B6],> 500 nM,<128,–,–,"CC50 at 72 h [2, 4]: > 64000 nM"
O=C1C[C@H](c2ccccn2)S[C@@H](c2ccccn2)C1 [Compound B7],> 500 nM,<128,–,–,"CC50 at 72 h [2, 4]: > 64000 nM"
O=C1C[C@H](c2ccccn2)S(=O)(=O)[C@@H](c2ccccn2)C1 [Compound B9],> 500 nM,<15.8,7890 nM,–,"cytotoxicity classification from CC50 ([1]; MRC-5 cells, class in words): moderately cytotoxic"
COc1ccc([C@H]2CC(=O)C[C@H](c3ccc(OC)cc3)S2(=O)=O)cc1 [Compound B10],> 500 nM,<128,–,–,"CC50 at 72 h [2, 4]: > 64000 nM"
O=C1C[C@H](c2ccccn2)S(=O)(=O)[C@H](c2ccccn2)C1 [Compound B11],> 500 nM,<14.9,7470 nM,–,"cytotoxicity classification from CC50 ([1]; MRC-5 cells, class in words): moderately cytotoxic"
